Values of other authors as cited in patent publication US9683982B2, “Method for diagnosis and/or prognosis of cancers by analysis of the mechanical properties of tumor cells” (Universität Leipzig, priority 2010, dated 2017).

System: cells of the cell line MCF7
Details: addition of 100 nmol/l TPA for 18 h in culture

CCCCCCCCCCCCCC(=O)O[C@@H]1[C@@H](C)[C@@]2(O)[C@@H](C=C(CO)C[C@]3(O)C(=O)C(C)=C[C@@H]23)[C@@H]2C(C)(C)[C@]12OC(C)=O [TPA, 12-O-tetradecanoylphorbol-13-acetate]
invasive potential and metastasis-forming potential: significant increase
